Measurements from patent US20220280543A1, “DDX17 AND NLRC4 TARGETING FOR INFLAMMATORY DISEASES” (University of Virginia Patent Foundation, priority 2019, published 2022).

How the values were obtained:
caspase-1 = test: Alu RNA induced caspase-1 activation in THP1 cells after siRNA knockdown; assay type: cell-based, human; details: siRNA knockdown (FIGS. 11A, 11B)
Description: FIGS. 11A and 11B. Ddx17 involved in Alu RNA (SEQ ID NO: 86) induced inflammasome independent of its microprocessor function. DDX17 is a component of microprocessor complexes with DDX5 and Drosha. To test whether the microprocessor function of DDX17 is required for Alu RNA (SEQ ID NO: 86) induced inflammasome, we measured caspase-1 activation in THP cells with DDX5 or Drosha knockdown (siRNA for DDX5: GGAAAUUACAGUUAGAGGU; SEQ ID NO: 89); siRNA for Drosha: GACAAGUUGAUAGGAUAUA; SEQ ID NO: 90). FIG. 11A. siRNA mediated Ddx17 knockdown, but not Ddx5 in THP1 cells, blocked Alu RNA (SEQ ID NO: 86) induced caspase-1 activation. […] The caspase-1 (p20) bands were indicated with black arrows.
We next examined whether DDX5 or DDX17 was the sensor for Alu RNA (SEQ ID NO: 86) induced NLRC4 inflammasome activation. Due to the high degree of similarity in the sequences of DDX5 and DDX17, we designed 3 siRNAs targeting DDX5 alone, DDX17 alone, or both DDX5 and DDX17, and confirmed their target efficiency in THP1 cells (FIG. 11A). […] Therefore, we tested whether Drosha is also involved in SINE RNA-DDX17-NLRC4 axis. […] These observations implicate that DDX17 mediated SINE RNA induced NLRC4 inflammasome is independent of microprocessor function.

IL-1β = test: Alu RNA induced IL-1β release in THP1 cells after siRNA knockdown, ELISA; assay type: cell-based, human; details: siRNA knockdown (FIG. 12B)
Description: (§1) FIGS. 12A and 12B. DDX17 knockdown blocks Alu RNA (SEQ ID NO: 86) induced ASC oligomerization and IL-1β release. FIG. 12A. siRNA mediated DDX17 knockdown (siRNA for DDX17: CCAAUCUGAUGUAUCAGGA; SEQ ID NO: 91), but not Ddx5 (siRNA for DDX5: GGAAAUUACAGUUAGAGGU; SEQ ID NO: 89) in THP1 cells, blocked Alu RNA (SEQ ID NO: 86) induced ASC oligomerization. The band of ASC oligomers were indicated by black arrow. FIG. 12B. siRNA mediated DDX17 knockdown, but not Ddx5 in THP1 cells, blocked Alu RNA (SEQ ID NO: 86) induced IL-1β release.
(§2) To further confirm that DDX17 is the sensor for NLRC4, we investigated caspase-1 cleavage by immunoblotting and IL-1β secretion by ELISA in Alu RNA (SEQ ID NO: 86) or mock treated THP1 cells and DDX17 KO BMDMs respectively.

NLRC4 inflammasome = test: Flagellin induced classical NLRC4 inflammasome (caspase-1) after DDX17 knockdown; assay type: cell-based; details: Flagellin 3 μg/ml, siRNA 24 hours before (FIG. 15)
Method: (§3) FIG. 15. […] THP1 cell were transfected with siRNA target on DDX17 (siRNA sequence: CCAAUCUGAUGUAUCAGGA; SEQ ID NO: 91), and then 24 hours later, Flagellin (3 μg/ml) or LPS (125 ng/ml) plus ATP ([…]/30 minutes), DOTAP plus LPS was added to the THP1 cells. Supernatants were collected for Caspase-1 detection. […] Loading control show by actin. The caspase-1 precursor is referred as p45, and the active form of caspase-1 as p20. The adaptor protein for inflammasome assembly, apoptosis-associated speck-like protein containing a CARD (ASC) is labeled as ASC. The caspase-1p20) bands were indicated with black arrow.
(§4) We finally examined whether DDX17 has a role in conventional NLRC4 activation by flagellin that requires NAIP and LPS+ATP dependent NLRP3 inflammasome activation. We treated […] with flagellin or LPS+ATP and transfected with siDDX17 and examined NLRC4 or NLRP3 dependent caspase-1 cleavage.

[1] = tested on: CXCL10, IFNB, IL-1β, CASPASE-1 expression; test: Alu RNA induced type I interferon response and inflammatory priming, qPCR, BMDM with DDX17 knockdown; assay type: cell-based, mouse; details: siRNA 24 hours before Alu RNA 100 pmol, qPCR (FIGS. 14A, 14B)
Method: FIGS. 14A and 14B. […] Wild type BMDM cell were transfected with siRNA target on DDX17 (CCAAUCUGAUGUAUCAGGA; SEQ ID NO: 91), and then 24 hours later, BMDM cells were treated with Alu RNA (SEQ ID NO: 86; 100 pmol). Total RNA extracted for qPCR assay.
We previously reported that Alu RNA (SEQ ID NO: 86) induces a type I interferon (IFN) response and inflammatory priming in BMDMs. Since DDX17 is essential for Alu RNA (SEQ ID NO: 86) induced inflammasome activation, we tested whether DDX17 knockdown could affect downstream events of the inflammasome cascade such as the type I IFN response.

RPE degeneration = test: Alu RNA induced RPE degeneration in mice, fundus images and ZO-1 staining; assay type: in vivo; details: mice, subretinal Alu RNA; fundus and ZO-1 (FIGS. 25B, 26)
Method: FIGS. 25A and 25B. NLRC4 knockdown blocks Alu RNA (SEQ ID NO: 86) induced ASC oligomerization and RPE degeneration. Human RPE cell treated with siRNA target on NLRC4 (SMARTPOOL siRNA for NLRC4: CAACUGGGCUCCUCUGUAA; SEQ ID NO: 93) and NAIP (SMARTPOOL siRNA for NAIP: GUAAAGAGCUAUAUGGAUA; SEQ ID NO: 94), 24 hours later, treated with Alu RNA (SEQ ID NO: 86 at 100 pmol) FIG. 25A. […] The band of ASC oligomers was indicated by black arrow. […] The hyperdense areas due to the RPE degeneration in fundus images and ZO-1 disorganizations in RPE sheet are indicated by white arrows.
FIG. 26. […] Wilde type of C57/B6 mice were intravitreally injected with siRNA target on Ddx17 (siRNA for Ddx17: GGCUAGAUGUGGAAGAUGU; SEQ ID NO: 95), and two days later, Nlrc4^−/−, Naip1-6^−/−, mice and Ddx17 knockdown mice were subretinally injected with Alu RNA (SEQ ID NO: 86). […] The hyperdense areas due to the RPE degeneration in fundus images and ZO-1 disorganizations in RPE sheet are indicated by white arrows.
Next, we asked whether Alu RNA (SEQ ID NO: 86) also triggered NLRC4 inflammasome activation in human RPE cells. We performed immunofluorescence staining experiments to examine whether Alu RNA (SEQ ID NO: 86) can induce NLRC4 speck formation in human RPE cells. We noticed punctate structures resembling specks of NLRC4 in human RPE cells in response to Alu RNA (SEQ ID NO: 86) treatment (FIG. 24A). […] We further investigated downstream events of NLRC4 inflammasome activation by studying NLRC4-induced ASC oligomerization, a critical step involved in caspase-1 cleavage. NLRC4 siRNA, when co-administered with Alu RNA (SEQ ID NO: 86), blocked ASC oligomerization in vitro (FIG. 25A) and RPE degeneration in vivo (FIG. 25B).
We delivered Alu RNA (SEQ ID NO: 86) or Alu RNA (SEQ ID NO: 86)+siDDX17 subretinally in WT or NLRC4 KO or NAIP1-6 KO mice and examined for RPE degeneration using fundus photos and ZO-1 staining as described previously.

NLRP3 inflammasome = test: LPS+ATP induced NLRP3 inflammasome (caspase-1) after DDX17 knockdown; assay type: cell-based; details: LPS 125 ng/ml plus ATP, siRNA 24 hours before (FIG. 15)
Method: as §3, §4

ASC oligomerization = test: Alu RNA induced ASC oligomerization in THP1 cells after siRNA knockdown; assay type: cell-based, human; details: siRNA knockdown (FIG. 12A)
Description: as §1, §2

## siDDX17: siRNA for DDX17: CCAAUCUGAUGUAUCAGGA; SEQ ID NO: 91 (chemistry not fully specified)
caspase-1
  caspase-1 cleavage in Alu RNA treated THP1 cells: inhibited
caspase-1; listed as DDX17 siRNA
  caspase-1 cleavage in Alu RNA treated THP1 cells: reduce
IL-1β
  Alu RNA induced IL-1β release, THP1 cells, ELISA: significantly reduced
NLRC4 inflammasome
  flagellin induced NLRC4 inflammasome, caspase-1 levels: does not affect
[1]
  expression of caspase-1, CXCL10, IFNβ, IL-18 and IL-1β genes after Alu RNA: did not affect
RPE degeneration
  Alu RNA induced RPE degeneration in vivo, effect of siRNA: rescued from this phenotype
NLRP3 inflammasome
  LPS+ATP induced NLRP3 inflammasome, caspase-1 levels: does not affect
ASC oligomerization
  Alu RNA induced ASC oligomerization, THP1 cells: prevented
